Data from patent US20260041744A1, “Methods for Treating Pompe Disease” (Amicus Therapeutics, Inc., priority 2022, published 2026).
Entries after “also recorded” stand apart in the source; their conditions may differ.

Legend:
[1] = system: adults with Pompe disease; assay: Study ATB200-02: patient-reported outcomes (FSS, R-PAct, RHS); type: in vivo, human
Description: Favorable findings observed through 48 months of treatment in 6MWD and FVC are bolstered by favorable directional trends in several other secondary endpoints for muscle strength, motor function, and respiratory function.
PROs supported the improvements observed for motor function, muscle strength and pulmonary function tests. […] SGIC outcomes for overall physical wellbeing improved in most patients across all cohorts after 48 months of follow up (Table 26C). PGIC results indicated an improvement or stabilization for all cohorts after 48 months of follow up and supported the results of other efficacy outcomes (Table 26C).
One patient reported no change, and one reported an improvement from baseline in SGIC overall physical wellbeing.

[2] = system: adults with Pompe disease; assay: Study ATB200-02: urine Hex4; conditions: for mean reduction from baseline in urine Hex4: b512 prints a minus sign;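 on all read-outs here: Hex4 is the urine glucose tetrasaccharide biomarker, measured at regular intervals during study follow-up and compared with each patient's baseline value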
Procedure: The change from baseline (CFBL) in 6MWD, % predicted sitting FVC, manual muscle test (MMT) and biomarkers—urine glucose tetrasaccharide (Hex4) and serum creatine kinase (CK)—were assessed at regular intervals.

[3] = system: adult subjects with late-onset Pompe disease (LOPD); assay: Study ATB200-03 (PROPEL): sitting % predicted FVC; type: in vivo, human; conditions: for absolute decline in percent-predicted FVC: 52 weeks; for CHG to Week 52 in sitting % predicted FVC, LS Mean: MMRM, actual time point of assessments; for Sitting % predicted FVC CHG, LS means (SE): Week 52, ANCOVA
Procedure: (§1) The test for the primary endpoint was conducted first at the 1-sided 0.025 significance level, and if significant, the ordered key secondary endpoints were similarly tested at the same significance level. The statistical significance of the key secondary endpoints was interpreted following a hierarchical testing order, each at the 1-sided alpha level of 0.025. […] Primary analyses of efficacy were performed using the mixed-effect model for repeated measures (MMRM) for 6MWD in Intent-to-treat Observed Population (ITT) that includes all available, observed data without any missing data imputation (ITT-OBS) and analysis of covariance (ANCOVA) for all other endpoints in the Intent-to-Treat-Last Observation Carried Forward (ITT-LOCF) Population. A nonparametric randomization based ANCOVA was specified as the first sensitivity analysis for 6MWD and FVC. […] For the purposes of data presentation in this document, 2-sided p-values are reported hereafter, except as otherwise noted.

[4] = system: adult subjects with late-onset Pompe disease (LOPD); assay: Study ATB200-03 (PROPEL): MMT lower extremity score; type: in vivo, human; conditions: for CHG to Week 52 in MMT lower extremity score, LS Mean: MMRM, actual time point of assessments; for MMT lower extremity score CHG, LS means (SE): Week 52, ANCOVA
Procedure: as §1

[5] = Ambulatory ERT-experienced, 12 months
[6] = Ambulatory ERT-experienced, 24 months
[7] = Ambulatory ERT-experienced, 36 months
[8] = Ambulatory ERT-experienced, 48 months
[9] = Ambulatory ERT-naïve, 12 months
[10] = Ambulatory ERT-naïve, 24 months
[11] = Ambulatory ERT-naïve, 36 months
[12] = Ambulatory ERT-naïve, 48 months
[13] = Non-ambulatory ERT-experienced, 12 months
[14] = Non-ambulatory ERT-experienced, 24 months
[15] = Non-ambulatory ERT-experienced, 36 months
[16] = Non-ambulatory ERT-experienced, 48 months
[17] = Baseline, ITT, ERT-naïve Population excluding Subject 4005-2511
[18] = ERT-naïve excluding Subject 4005-2511
[19] = ITT-LOCF, ERT-naïve Population excluding Subject 4005-2511
[20] = ITT-OBS excluding Subject 4005-2511 (overall)
[21] = ITT-OBS excluding Subject 4005-2511, ERT-naïve Subjects
[22] = ITT-OBS, ERT-experienced Subjects
[23] = Week 52-LOCF, ERT-experienced Population
[24] = Week 52-LOCF, ERT-naïve Population excluding Subject 4005-2511
[25] = Week 52-LOCF, ITT excluding Subject 4005-2511
[26] = ITT-LOCF excluding Subject 4005-2511
[27] = ITT-LOCF, ERT-experienced Population

Substance: ATB200/miglustat: two-component therapy: cipaglucosidase alfa (ATB200) administered in conjunction with miglustat (AT2221), a stabilizer of cipaglucosidase alfa
- patient-reported outcomes FSS, R-PAct, RHS ([1]; 48 months, listed as cipaglucosidase alfa/miglustat): meaningful improvements in subject-perceived fatigue, ability to perform daily life activities, and overall physical well-being; also recorded: all ambulatory patients reported stable R-PAct scores and RHS compared with baseline scores; also recorded: improved FSS and stable RHS scores compared with baseline
- Fatigue Severity Scale, CFBL mean [1, 5]: −2.9
- Rasch-built Pompe-specific Activity, CFBL mean [1, 5]: 1.3
- Rotterdam Handicap Scale, CFBL mean [1, 5]: −0.3
- Fatigue Severity Scale, CFBL mean [1, 6]: −3.1
- Rasch-built Pompe-specific Activity, CFBL mean [1, 6]: 2.2
- Rotterdam Handicap Scale, CFBL mean [1, 6]: −1.1
- Fatigue Severity Scale, CFBL mean [1, 7]: 1.4
- Rasch-built Pompe-specific Activity, CFBL mean [1, 7]: −0.1
- Rotterdam Handicap Scale, CFBL mean [1, 7]: −2.3
- Fatigue Severity Scale, CFBL mean [1, 8]: −3.4
- Rasch-built Pompe-specific Activity, CFBL mean [1, 8]: −0.3
- Rotterdam Handicap Scale, CFBL mean [1, 8]: −2.3
- Fatigue Severity Scale, CFBL mean [1, 9]: −6.3
- Rasch-built Pompe-specific Activity, CFBL mean [1, 9]: 2.0
- Rotterdam Handicap Scale, CFBL mean [1, 9]: −0.4
- Fatigue Severity Scale, CFBL mean [1, 10]: −5.5
- Rasch-built Pompe-specific Activity, CFBL mean [1, 10]: 2.2
- Rotterdam Handicap Scale, CFBL mean [1, 10]: −0.4
- Fatigue Severity Scale, CFBL mean [1, 11]: −6.2
- Rasch-built Pompe-specific Activity, CFBL mean [1, 11]: 1.4
- Rotterdam Handicap Scale, CFBL mean [1, 11]: −1.2
- Fatigue Severity Scale, CFBL mean [1, 12]: 1.2
- Rasch-built Pompe-specific Activity, CFBL mean [1, 12]: −0.6
- Rotterdam Handicap Scale, CFBL mean [1, 12]: −1.3
- Fatigue Severity Scale, CFBL mean [1, 13]: −9.2
- Rasch-built Pompe-specific Activity, CFBL mean [1, 13]: 1.4
- Rotterdam Handicap Scale, CFBL mean [1, 13]: 0.6
- Fatigue Severity Scale, CFBL mean [1, 14]: −23.0
- Rasch-built Pompe-specific Activity, CFBL mean [1, 14]: 0.8
- Rotterdam Handicap Scale, CFBL mean [1, 14]: 0.6
- Fatigue Severity Scale, CFBL mean [1, 15]: −10.0
- Rasch-built Pompe-specific Activity, CFBL mean [1, 15]: 0.8
- Rotterdam Handicap Scale, CFBL mean [1, 15]: 0.6
- Fatigue Severity Scale, CFBL mean [1, 16]: −12.0
- Rasch-built Pompe-specific Activity, CFBL mean [1, 16]: 2.0
- Rotterdam Handicap Scale, CFBL mean [1, 16]: −1.5
- Urinary Hex4, % CFBL mean [2, 5]: −36.11%
- Urinary Hex4, % CFBL mean [2, 6]: −11.8%
- Urinary Hex4, % CFBL mean [2, 7]: −35.1%
- Urinary Hex4, % CFBL mean [2, 8]: −4.0%
- Urinary Hex4, % CFBL mean [2, 9]: −40.7%
- Urinary Hex4, % CFBL mean [2, 10]: −49.5%
- Urinary Hex4, % CFBL mean [2, 11]: −39.3%
- Urinary Hex4, % CFBL mean [2, 12]: −39.9%
- mean reduction from baseline in urine Hex4 ([2]; Cohort 2 (non-ambulatory ERT-experienced), 12 months, listed as cipaglucosidase alfa plus miglustat): 15.6%
- mean reduction from baseline in urine Hex4 ([2]; Cohort 2 (non-ambulatory ERT-experienced), 12 months, listed as cipaglucosidase alfa/miglustat): −15.6%
- mean reduction from baseline in urine Hex4 ([2]; Cohort 2, 24 months, listed as cipaglucosidase alfa plus miglustat): 34.1%
- mean reduction from baseline in urine Hex4 ([2]; Cohort 2, 24 months, listed as cipaglucosidase alfa/miglustat): −34.1%
- mean reduction from baseline in urine Hex4 ([2]; Cohort 2, 36 months, listed as cipaglucosidase alfa plus miglustat): 36.5%
- mean reduction from baseline in urine Hex4 ([2]; Cohort 2, 36 months, listed as cipaglucosidase alfa/miglustat): −36.5%
- mean reduction from baseline in urine Hex4 ([2]; Cohort 2, 48 months, listed as cipaglucosidase alfa plus miglustat): 9.4%
- mean reduction from baseline in urine Hex4 ([2]; Cohort 2, 48 months, listed as cipaglucosidase alfa/miglustat): −4.0%
- patients with abnormal baseline Hex4 who had normal Hex4 levels at Month 48 ([2]; ERT-experienced (four of five)): 80.0%
- patients whose urine Hex4 decreased numerically from baseline (n/N) ([2]; ERT-experienced, 12 months): 16/16
- patients whose urine Hex4 decreased numerically from baseline (n/N) ([2]; ERT-experienced, 24 months): 11/14
- patients whose urine Hex4 decreased numerically from baseline (n/N) ([2]; ERT-experienced, 36 months): 11/12
- patients whose urine Hex4 decreased numerically from baseline (n/N) ([2]; ERT-experienced, 48 months): 6/9
- patients with abnormal baseline Hex4 who returned to normal Hex4 levels at Month 48 ([2]; ERT-naïve ambulatory (one of four)): 25.0%
- patients whose urine Hex4 decreased numerically from baseline (n/N) ([2]; ERT-naïve, 12 months): 5/6
- patients whose urine Hex4 decreased numerically from baseline (n/N) ([2]; ERT-naïve, 24 months): 5/6
- patients whose urine Hex4 decreased numerically from baseline (n/N) ([2]; ERT-naïve, 36 months): 4/5
- patients whose urine Hex4 decreased numerically from baseline (n/N) ([2]; ERT-naïve, 48 months): 4/5
- Urinary Hex4, % CFBL mean [2, 13]: −15.6%
- Urinary Hex4, % CFBL mean [2, 14]: −34.1%
- Urinary Hex4, % CFBL mean [2, 15]: −36.5%
- Urinary Hex4, % CFBL mean [2, 16]: −9.4 ) %

Substance: alglucosidase alfa [reference compound]
- Sitting % Predicted FVC Absolute Value, Mean [3, 17]: 79.07 % predicted
- Sitting % predicted FVC Absolute Value, Median [3, 17]: 93.50 % predicted
- FVC (% predicted) CFBL at Week 52 ([3]; ERT switch (ERT-experienced) population): −4.0 (0.9) % predicted
- FVC (% predicted) CFBL at Week 52 ([3]; ERT treatment naive population): −3.6 % predicted
- FVC (% predicted) CFBL at Week 52 ([3]; ERT treatment naive population, listed as Alglucosidase alfa): −3.6 (1.8) % predicted
- absolute decline in percent-predicted FVC ([3]; ERT-experienced): 4.0%
- mean change in sitting % predicted FVC from baseline to Week 52 [3, 18]: −3.6%
- Change in sitting % predicted FVC baseline to Week 52, LS means (SE) from ANCOVA [3, 19]: −2.54 (2.758) % predicted
- CHG to Week 52 in sitting % predicted FVC, LS Mean [3, 20]: −3.7
- CHG to Week 52 in sitting % predicted FVC, LS Mean [3, 21]: −2.4
- CHG to Week 52 in sitting % predicted FVC, LS Mean [3, 22]: −3.8
- Sitting % predicted FVC Absolute Value, Mean (SD) [3, 23]: 63.47 (20.480) % predicted
- Sitting % predicted FVC Absolute Value, Median [3, 23]: 62.00 % predicted
- Sitting % predicted FVC CHG, Mean (SD) [3, 23]: −4.02 (5.009) % predicted
- Sitting % predicted FVC CHG, Median [3, 23]: −3.25 % predicted
- Sitting % Predicted FVC Absolute Value, Mean [3, 24]: 75.43 % predicted
- Sitting % Predicted FVC CHG (change from baseline), Mean [3, 24]: −3.64 % predicted
- Sitting % Predicted FVC CHG (change from baseline), Median [3, 24]: −3.00 % predicted
- Sitting % predicted FVC Absolute Value, Median [3, 24]: 85.00 % predicted
- Sitting % predicted FVC Absolute Value, Mean (SD) [3, 25]: 65.73 (21.109) % predicted
- Sitting % predicted FVC Absolute Value, Median [3, 25]: 69.00 % predicted
- Sitting % predicted FVC CHG, Mean (SD) [3, 25]: −3.95 (4.892) % predicted
- Sitting % predicted FVC CHG, Median [3, 25]: −3.00 % predicted
- Sitting % predicted FVC CHG, LS means (SE) [3, 26]: −3.70 (0.953) % predicted
- Sitting % predicted FVC CHG, LS means (SE) [3, 27]: −3.64 (1.019) % predicted
- FVC (% predicted) CFBL at Week 52 ([3]; overall ERT switch + ERT naïve population): −4.0 (0.8) % predicted
- absolute decline in percent-predicted FVC ([3]; overall population): 4.0%
- MMT Lower Extremity Score Absolute Value, Mean [4, 17]: 33.57
- MMT lower extremity score Absolute Value, Median [4, 17]: 32.00
- mean (SD) change in MMT lower extremity score from baseline to Week 52 ([4]; ERT-experienced Population): 0.9 (2.81)
- mean (SD) change in MMT lower extremity score from baseline to Week 52 [4, 18]: 1.0 (1.53)
- Change in MMT lower extremity score baseline to Week 52, LS means (SE) from ANCOVA [4, 19]: 0.69 (1.013)
- CHG to Week 52 in MMT lower extremity score, LS Mean [4, 20]: 0.7
- CHG to Week 52 in MMT lower extremity score, LS Mean [4, 21]: −0.0
- CHG to Week 52 in MMT lower extremity score, LS Mean [4, 22]: 0.9
- MMT lower extremity score Absolute Value, Mean (SD) [4, 23]: 26.96 (6.802)
- MMT lower extremity score Absolute Value, Median [4, 23]: 28.00
- MMT lower extremity score CHG, Mean (SD) [4, 23]: 0.85 (2.811)
- MMT lower extremity score CHG, Median [4, 23]: 1.00
- MMT Lower Extremity Score Absolute Value, Mean [4, 24]: 34.57
- MMT Lower Extremity Score CHG (change from baseline), Mean [4, 24]: 1.00
- MMT Lower Extremity Score CHG (change from baseline), Median [4, 24]: 2.00
- MMT lower extremity score Absolute Value, Median [4, 24]: 34.00
- MMT lower extremity score Absolute Value, Mean (SD) [4, 25]: 28.53 (6.999)
- MMT lower extremity score Absolute Value, Median [4, 25]: 29.00
- MMT lower extremity score CHG, Mean (SD) [4, 25]: 0.88 (2.579)
- MMT lower extremity score CHG, Median [4, 25]: 1.00
- MMT lower extremity score CHG, LS means (SE) [4, 26]: 0.68 (0.603)
- MMT lower extremity score CHG, LS means (SE) [4, 27]: 0.90 (0.735)
- mean (SD) change in MMT lower extremity score from baseline to Week 52 ([4]; overall population): 0.9 (2.58)
